# According to publication PMC4156793 (Vascular Cell, 2014):
# Marks after values point to notes of the source that are not given here.
# Tests used:
# DU145 (Prostate) = assay: Tumor cell proliferation assay (MTT), DU145; assay type: cell-based; conditions: Homo sapiens, DU-145, read-out: IC50 in vitro anti-proliferative activity
# Method: (§1) Tumor cells were plated at 1 to 2 × 10^3 cells/well on 96-well plates in 0.1 ml of RPMI 1640 containing 10% FBS. […] The HUVEC proliferation assay were performed by a method described previously. […] Percent inhibition of cell growth was determined by the formula below: Inhibition (%) = Mean value of OD of control wells - OD of treated wells * 100/Mean value of OD of control wells. Each value is expressed as the mean. […] All experiments were done in either duplicate or quadruplicate.
# Colo205 (Colon) = assay: Tumor cell proliferation assay (MTT), Colo205; assay type: cell-based; conditions: Homo sapiens, COLO 205, read-out: IC50 in vitro anti-proliferative activity
# Method: as §1
# [1] = system: MIApaca-II (Pancreas) xenograft; assay: Subcutaneous xenograft model, MIApaca-II; assay type: in vivo, mouse
# Method: (§2) Tumor cells were injected subcutaneously into the right flank region of 7-week-old nude mice. […] Tumor diameters were measured with a vernier caliper and body weight was measured twice weekly. The tumor volume (mm^3) was calculated using the formula: length (mm) × width (mm)^2 × 1/2. […] When the tumor volume was reduced, the ΔT/C values were calculated by the following formula: ΔT/C (%) = (TVn - TV1)/TV1 × 100, where TVn is the tumor volume of treated mice at day n. The number of mice is ten for control group in Table 1 and five for each group in other experiments. Mice in control group were treated with vehicle.
# MDA-MB 435 (Melanoma) = assay: Tumor cell proliferation assay (MTT), MDA-MB 435; assay type: cell-based; conditions: Homo sapiens, read-out: IC50 in vitro anti-proliferative activity
# Method: as §1
# [2] = Tolerability in tumor-bearing nude mice; assay type: in vivo
# Method: as §2
# HUVECs [3] = assay: VEGF-induced proliferation of HUVECs; assay type: cell-based; conditions: Homo sapiens, HUVEC, 72 h; VEGF 20 ng/mL, 3 days, WST-1
# Method: (§3) Tumor cells were plated at 1 to 2 × 10^3 cells/well on 96-well plates in 0.1 ml of RPMI 1640 containing 10% FBS. […] The HUVEC proliferation assay were performed by a method described previously. […] After incubation for 3 days, cell viability was determined by measuring the absorbance of WST-1 reagent (DOJINDO, Kumamoto, Japan). Percent inhibition of cell growth was determined by the formula below: Inhibition (%) = Mean value of OD of control wells - OD of treated wells * 100/Mean value of OD of control wells. Each value is expressed as the mean. […] All experiments were done in either duplicate or quadruplicate.
# H460 (Lung) = assay: Tumor cell proliferation assay (MTT), H460; assay type: cell-based; conditions: Homo sapiens, NCI-H460; read-out: IC50 in vitro anti-proliferative activity
# Method: as §1
# FGFR1 = target: T1, FGFR1 (Homo sapiens, UniProt P11362); assay: In vitro kinase assay FGFR1; assay type: biochemical
# T1 construct: purchased Carna Biosciences, Inc. (Kobe, Japan)
# T1 sequence (P11362 22-822): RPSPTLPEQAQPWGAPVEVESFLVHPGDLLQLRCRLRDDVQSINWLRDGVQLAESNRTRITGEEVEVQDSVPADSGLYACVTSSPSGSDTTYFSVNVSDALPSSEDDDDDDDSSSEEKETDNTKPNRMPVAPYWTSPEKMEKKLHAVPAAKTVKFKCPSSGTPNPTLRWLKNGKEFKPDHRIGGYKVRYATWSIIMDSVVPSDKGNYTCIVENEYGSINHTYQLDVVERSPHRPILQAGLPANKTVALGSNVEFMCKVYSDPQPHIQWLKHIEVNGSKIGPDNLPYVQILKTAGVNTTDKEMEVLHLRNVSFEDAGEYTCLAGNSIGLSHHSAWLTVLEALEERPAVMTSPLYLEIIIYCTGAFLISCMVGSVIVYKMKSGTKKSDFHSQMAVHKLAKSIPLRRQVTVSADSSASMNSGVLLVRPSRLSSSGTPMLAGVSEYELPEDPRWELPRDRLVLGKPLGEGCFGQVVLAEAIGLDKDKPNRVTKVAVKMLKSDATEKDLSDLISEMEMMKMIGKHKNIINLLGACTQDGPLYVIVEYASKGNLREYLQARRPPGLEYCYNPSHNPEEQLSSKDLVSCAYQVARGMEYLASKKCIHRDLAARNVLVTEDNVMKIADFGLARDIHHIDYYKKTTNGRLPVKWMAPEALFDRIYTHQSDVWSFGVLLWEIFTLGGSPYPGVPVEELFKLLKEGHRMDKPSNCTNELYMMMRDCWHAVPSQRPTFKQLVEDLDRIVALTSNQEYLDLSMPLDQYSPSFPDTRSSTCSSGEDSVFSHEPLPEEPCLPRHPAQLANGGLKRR
# Method: (§4) Tyrosine kinase assays were performed by an ELISA and Off-chip Mobility Shift Assay (MSA) by Carna Biosciences, Inc. (Kobe, Japan).
# FGFR2 = target: T2, FGFR2 (Homo sapiens, UniProt P21802); assay: In vitro kinase assay FGFR2; assay type: biochemical
# T2 construct: purchased Carna Biosciences, Inc. (Kobe, Japan)
# T2 sequence (P21802 22-821): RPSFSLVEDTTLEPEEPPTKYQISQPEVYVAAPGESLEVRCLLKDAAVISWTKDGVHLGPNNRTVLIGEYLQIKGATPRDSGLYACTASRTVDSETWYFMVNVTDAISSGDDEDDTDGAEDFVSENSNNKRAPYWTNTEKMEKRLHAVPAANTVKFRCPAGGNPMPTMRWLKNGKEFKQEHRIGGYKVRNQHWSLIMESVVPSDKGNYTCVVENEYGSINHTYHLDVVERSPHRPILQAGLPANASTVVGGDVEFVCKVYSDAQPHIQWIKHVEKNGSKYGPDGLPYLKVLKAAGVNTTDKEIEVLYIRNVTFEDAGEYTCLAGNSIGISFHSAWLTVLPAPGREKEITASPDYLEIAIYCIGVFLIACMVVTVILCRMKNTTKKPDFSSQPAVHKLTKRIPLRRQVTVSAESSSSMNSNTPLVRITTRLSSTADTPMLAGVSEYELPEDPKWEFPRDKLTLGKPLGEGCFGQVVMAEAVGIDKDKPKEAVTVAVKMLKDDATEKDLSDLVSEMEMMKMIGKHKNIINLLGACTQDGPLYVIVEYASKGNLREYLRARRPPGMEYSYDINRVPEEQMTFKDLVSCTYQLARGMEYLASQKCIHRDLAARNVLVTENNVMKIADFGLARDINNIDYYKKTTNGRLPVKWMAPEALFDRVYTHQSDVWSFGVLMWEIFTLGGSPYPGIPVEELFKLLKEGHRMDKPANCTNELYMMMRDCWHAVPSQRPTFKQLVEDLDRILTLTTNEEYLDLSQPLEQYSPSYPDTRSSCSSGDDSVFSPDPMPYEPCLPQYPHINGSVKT
# Method: as §4
# FGFR3 = target: T3, FGFR3 (Homo sapiens, UniProt P22607); assay: In vitro kinase assay FGFR3; assay type: biochemical
# T3 construct: purchased Carna Biosciences, Inc. (Kobe, Japan)
# T3 sequence (P22607 23-806): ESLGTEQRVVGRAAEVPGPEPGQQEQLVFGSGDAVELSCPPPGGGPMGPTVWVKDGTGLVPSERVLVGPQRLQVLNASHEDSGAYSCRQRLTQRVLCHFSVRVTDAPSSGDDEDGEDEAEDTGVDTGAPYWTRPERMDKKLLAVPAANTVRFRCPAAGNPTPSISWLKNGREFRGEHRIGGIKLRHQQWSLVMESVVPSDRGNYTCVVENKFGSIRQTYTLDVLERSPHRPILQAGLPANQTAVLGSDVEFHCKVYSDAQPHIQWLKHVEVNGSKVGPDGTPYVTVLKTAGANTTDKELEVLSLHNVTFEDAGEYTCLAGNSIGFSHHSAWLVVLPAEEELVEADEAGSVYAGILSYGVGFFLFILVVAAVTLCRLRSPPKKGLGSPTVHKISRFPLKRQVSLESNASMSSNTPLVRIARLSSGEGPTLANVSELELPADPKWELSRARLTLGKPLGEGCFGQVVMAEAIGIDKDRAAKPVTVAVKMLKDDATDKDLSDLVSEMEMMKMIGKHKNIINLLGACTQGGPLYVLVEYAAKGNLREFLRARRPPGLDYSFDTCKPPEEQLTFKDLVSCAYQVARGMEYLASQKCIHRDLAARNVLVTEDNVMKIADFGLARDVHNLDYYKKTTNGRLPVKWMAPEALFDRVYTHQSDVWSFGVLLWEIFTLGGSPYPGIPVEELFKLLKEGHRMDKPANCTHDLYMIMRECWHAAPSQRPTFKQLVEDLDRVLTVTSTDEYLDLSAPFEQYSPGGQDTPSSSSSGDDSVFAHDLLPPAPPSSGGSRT
# Method: as §4
# HUVECs [4] = assay: FGF-2 induced proliferation of HUVECs; assay type: cell-based; conditions: Homo sapiens, HUVEC, 72 h; FGF2 20 ng/mL, 3 days, WST-1
# Method: as §3
# [5] = system: Colo205 (Colon) xenograft; assay: Subcutaneous xenograft model, Colo205; assay type: in vivo, mouse
# Method: as §2
# KP-1/VEGF transfectants = assay: In vitro growth of KP-1/VEGF transfectants; assay type: cell-based; conditions: Homo sapiens
# Method: as §3
# H460 (Lung) xenograft = assay: Subcutaneous xenograft model, H460; assay type: in vivo, mouse
# Method: as §2
# HUVECs [6] = assay: VEGF-induced sandwich tube formation (sTF) of HUVECs; assay type: cell-based; conditions: Homo sapiens, HUVEC, 96 h; sTF assay, EGF 10 ng/mL with VEGF 20 ng/mL, 4 days
# Method: (§5) In vitro sandwich tube formation (sTF) assay, HUVECs in SFM containing EGF (10 ng/mL) with VEGF (20 ng/mL) or FGF2 (20 ng/ml) were plated onto the 1st layer of collagen gel (Nitta Gelatin, Tokyo, Japan) at 1.0 × 10^5 cells in 24-well plates and a 2nd layer of collagen gel was added onto the HUVECs. […] After 4 days, MTT solution was added and photomicrographs of tube formation were taken with a light microscope. The tube length of capillaries was measured using image analysis (Angiogenesis Image Analyzer, ver. 1.04; Kurabo, Osaka, Japan).
# [7] = system: MDA-MB 435 (Melanoma) xenograft; assay: Subcutaneous xenograft model, MDA-MB 435; assay type: in vivo, mouse; conditions: MDA-MB 435 xenograft
# Method: as §2
# A431 (Epidermoid) = assay: Tumor cell proliferation assay (MTT), A431; assay type: cell-based; conditions: Homo sapiens, A-431, read-out: IC50 in vitro anti-proliferative activity
# Method: as §1
# [8] = system: DU145 (Prostate) xenograft; assay: Subcutaneous xenograft model, DU145; assay type: in vivo, mouse
# Method: as §2
# SK-OV-3 (Ovary) = assay: Tumor cell proliferation assay (MTT), SK-OV-3; assay type: cell-based; conditions: Homo sapiens, read-out: IC50 in vitro anti-proliferative activity
# Method: as §1
# MIApaca-II (Pancreas) = assay: Tumor cell proliferation assay (MTT), MIApaca-II; assay type: cell-based; conditions: Homo sapiens, read-out: IC50 in vitro anti-proliferative activity
# Method: as §1
# VEGFR1 (FLT1) = target: T4, VEGFR1 (FLT1) (Homo sapiens, UniProt P17948); assay: In vitro kinase assay VEGFR1 (FLT1); assay type: biochemical
# T4 construct: purchased Carna Biosciences, Inc. (Kobe, Japan)
# Method: as §4
# SEKI model = assay: Subcutaneous xenograft model, SEKI; assay type: in vivo, mouse; conditions: 100 mg/kg orally twice daily for 7 days
# Method: as §2
# Each group consisted of 5 mice. […] The relationship between the antitumor activity and MVD is shown in (B), and that between the antitumor activity and the % of pericyte coverage of vessels is shown in (C). Each symbol (○) indicates the mean of MVD or pericyte coverage in each tumor xenograft model. (D) Vascular score in the lenvatinib-sensitive and –relatively resistant groups. The vascular score was the sum of the MVD and pericyte coverage scores.
# [9] = system: A431 (Epidermoid) xenograft; assay: Subcutaneous xenograft model, A431; assay type: in vivo, mouse
# Method: as §2
# HUVECs [10] = assay: FGF-2 induced sandwich tube formation (sTF) of HUVECs; assay type: cell-based; conditions: Homo sapiens, HUVEC, 96 h; sTF assay, EGF 10 ng/mL with FGF2 20 ng/ml, 4 days
# Method: as §5
# [11] = system: SK-OV-3 (Ovary) xenograft; assay: Subcutaneous xenograft model, SK-OV-3; assay type: in vivo, mouse; conditions: SK-OV-3 xenograft
# Method: as §2
# VEGFR3 (FLT4) = target: T5, VEGFR3 (FLT4) (Homo sapiens, UniProt P35916); assay: In vitro kinase assay VEGFR3 (FLT4); assay type: biochemical
# T5 construct: purchased Carna Biosciences, Inc. (Kobe, Japan)
# T5 sequence (P35916 25-1363): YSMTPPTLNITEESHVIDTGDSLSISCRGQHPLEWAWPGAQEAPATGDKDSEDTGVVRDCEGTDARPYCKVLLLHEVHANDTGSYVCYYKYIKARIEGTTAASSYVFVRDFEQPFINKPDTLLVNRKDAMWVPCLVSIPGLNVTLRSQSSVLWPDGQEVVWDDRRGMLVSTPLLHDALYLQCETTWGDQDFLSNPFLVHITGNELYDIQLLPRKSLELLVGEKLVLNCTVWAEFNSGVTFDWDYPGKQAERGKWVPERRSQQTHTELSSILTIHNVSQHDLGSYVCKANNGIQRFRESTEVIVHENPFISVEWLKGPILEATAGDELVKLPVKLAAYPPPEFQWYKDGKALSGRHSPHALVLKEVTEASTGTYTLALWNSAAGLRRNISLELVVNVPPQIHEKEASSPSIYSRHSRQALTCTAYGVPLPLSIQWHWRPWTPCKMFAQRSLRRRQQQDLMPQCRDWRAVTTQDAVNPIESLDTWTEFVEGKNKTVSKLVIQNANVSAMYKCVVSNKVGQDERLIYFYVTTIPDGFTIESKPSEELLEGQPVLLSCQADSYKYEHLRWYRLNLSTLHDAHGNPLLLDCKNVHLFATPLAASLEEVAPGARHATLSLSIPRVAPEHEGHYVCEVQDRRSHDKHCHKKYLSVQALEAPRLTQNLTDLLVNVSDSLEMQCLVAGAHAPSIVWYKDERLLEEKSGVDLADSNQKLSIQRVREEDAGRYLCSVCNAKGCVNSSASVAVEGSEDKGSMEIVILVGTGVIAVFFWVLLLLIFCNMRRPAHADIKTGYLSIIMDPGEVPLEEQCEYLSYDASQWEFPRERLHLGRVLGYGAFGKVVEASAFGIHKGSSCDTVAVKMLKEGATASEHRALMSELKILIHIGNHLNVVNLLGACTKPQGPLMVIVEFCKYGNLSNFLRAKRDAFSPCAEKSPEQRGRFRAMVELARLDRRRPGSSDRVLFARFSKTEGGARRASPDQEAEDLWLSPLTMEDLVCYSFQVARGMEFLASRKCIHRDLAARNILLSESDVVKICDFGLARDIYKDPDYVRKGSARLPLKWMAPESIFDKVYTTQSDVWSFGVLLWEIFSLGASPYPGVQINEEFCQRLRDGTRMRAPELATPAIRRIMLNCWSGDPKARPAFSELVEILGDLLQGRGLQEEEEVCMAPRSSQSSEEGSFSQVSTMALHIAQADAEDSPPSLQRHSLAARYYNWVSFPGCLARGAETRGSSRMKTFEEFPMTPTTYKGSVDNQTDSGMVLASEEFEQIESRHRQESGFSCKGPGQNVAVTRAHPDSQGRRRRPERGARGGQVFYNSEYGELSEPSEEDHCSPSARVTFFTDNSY
# Method: as §4
# KIT = target: T6, KIT (Homo sapiens, UniProt P10721); assay: In vitro kinase assay KIT; assay type: biochemical
# T6 construct: purchased Carna Biosciences, Inc. (Kobe, Japan)
# T6 sequence (P10721 26-976): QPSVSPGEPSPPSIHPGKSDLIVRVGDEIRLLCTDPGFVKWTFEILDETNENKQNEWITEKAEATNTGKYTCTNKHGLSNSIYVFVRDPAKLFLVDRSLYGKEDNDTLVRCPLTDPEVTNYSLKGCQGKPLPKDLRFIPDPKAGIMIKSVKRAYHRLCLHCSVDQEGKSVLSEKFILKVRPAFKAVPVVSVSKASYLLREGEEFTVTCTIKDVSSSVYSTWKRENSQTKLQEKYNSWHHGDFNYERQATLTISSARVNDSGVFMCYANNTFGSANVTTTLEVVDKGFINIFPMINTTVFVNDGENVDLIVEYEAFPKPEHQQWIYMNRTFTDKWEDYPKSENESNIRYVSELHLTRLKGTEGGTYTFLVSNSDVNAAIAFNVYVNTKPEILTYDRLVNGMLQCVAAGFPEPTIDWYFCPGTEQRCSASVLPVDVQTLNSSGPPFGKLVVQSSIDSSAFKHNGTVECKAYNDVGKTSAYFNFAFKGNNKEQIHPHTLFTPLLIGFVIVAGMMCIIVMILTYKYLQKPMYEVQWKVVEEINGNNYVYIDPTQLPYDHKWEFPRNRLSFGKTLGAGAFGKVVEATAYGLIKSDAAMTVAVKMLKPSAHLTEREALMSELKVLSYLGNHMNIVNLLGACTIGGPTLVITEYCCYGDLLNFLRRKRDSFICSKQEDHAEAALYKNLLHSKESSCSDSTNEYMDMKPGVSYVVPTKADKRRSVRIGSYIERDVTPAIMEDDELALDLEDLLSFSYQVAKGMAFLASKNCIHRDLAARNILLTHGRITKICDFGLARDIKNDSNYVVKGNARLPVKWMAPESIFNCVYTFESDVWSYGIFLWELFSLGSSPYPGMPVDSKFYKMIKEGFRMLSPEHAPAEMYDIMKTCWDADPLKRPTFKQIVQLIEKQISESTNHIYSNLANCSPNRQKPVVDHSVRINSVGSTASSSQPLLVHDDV
# [12] = system: FGFR-driven proliferation; conditions: read-out: IC50, FGFR-driven proliferation in cell assays; cited from earlier work
# [13] = system: VEGF-driven in vivo angiogenesis (KP-1/VEGF transfectants); assay: Mouse dorsal air sac (DAS) assay, KP-1/VEGF; conditions: 100 and 300 mg/kg, orally once daily for 4 days
# Method: (§6) An in vivo angiogenesis assay in mice was performed as described previously with minor changes. Millipore chambers (Millipore, Bedford, MA) were packed with 1.0 × 10^7 KP-1 mock, KP-1/VEGF or KP-1/FGF transfectants and transplanted into the dorsal air sac of C57BL/6 mice (n = 3–5 each, with experiments performed in triplicate). For a pseudo-operation, collagen I gel was injected into the Millipore chambers. Photographs were taken 4 days after implantation.
# (§7) (A) In vivo angiogenesis in mouse DAS assay. Angiogenesis was induced by overexpressed human VEGF121 (KP-1/VEGF) or mouse FGF4 (KP-1/FGF) in human pancreatic cancer KP-1 cells at the mouse dorsal skin. Representative photographs are shown. […] Compounds were administered orally once daily for 4 days at the indicated doses. Data are the mean ± std. *: p < 0.05 and **: p < 0.01 compared to vehicle.
# [14] = system: FGF-driven in vivo angiogenesis (KP-1/FGF transfectants); assay: Mouse dorsal air sac (DAS) assay, KP-1/FGF; conditions: 100 mg/kg, orally once daily for 4 days
# Method: as §6, §7
# [15] = 1 mg/kg orally twice daily for 14 days
# [16] = 3 mg/kg orally twice daily for 14 days
# [17] = 10 mg/kg orally twice daily for 14 days
# [18] = 30 mg/kg orally twice daily for 14 days
# [19] = 100 mg/kg orally twice daily for 14 days
# [20] = 1 mg/kg orally twice daily for 28 days
# [21] = 3 mg/kg orally twice daily for 28 days
# [22] = 10 mg/kg orally twice daily for 28 days
# [23] = 30 mg/kg orally twice daily for 28 days
# [24] = 100 mg/kg orally twice daily for 28 days
structure (smiles),measurement,setting,value
"COc1cc2nccc(Oc3ccc(NC(=O)NC4CC4)c(Cl)c3)c2cc1C(N)=O [lenvatinib, 4-[3-Chloro-4-(N’-cyclopropylureido)phenoxy]-7-methoxyquinoline-6-carboxamide]",IC50,DU145 (Prostate),30800 nM
same,IC50,Colo205 (Colon),27500 nM
same,ΔTV (%) lenvatinib (mg/kg) 1,[1]; [15],56.1* %
same,ΔTV (%) lenvatinib (mg/kg) 3,[1]; [16],49.9* %
same,ΔTV (%) lenvatinib (mg/kg) 10,[1]; [17],30.1* %
same,ΔTV (%) lenvatinib (mg/kg) 30,[1]; [18],15.3* %
same,ΔTV (%) lenvatinib (mg/kg) 100,[1]; [19],12.5* %
same,IC50,MDA-MB 435 (Melanoma),24200 nM
same,Losses of body weights,"[2]; 100 mg/kg twice daily for 4 weeks, observed in 3 out of 7 models",< 10%
same,MTD at 4 weeks,"[2]; mouse, in vivo, oral, tumor xenograft models, read-out: Maximum tolerated dose (MTD)",100 mg/kg
same,IC50,HUVECs [3],3.4 nM
same,IC50,H460 (Lung),26300 nM
same,Ki,FGFR1,22 nM
same,Ki,FGFR2,8.2 nM
same,Ki,FGFR3,15 nM
same,IC50,HUVECs [4],410 nM
same,ΔTV (%) lenvatinib (mg/kg) 1,[5]; [15],43.8* %
same,ΔTV (%) lenvatinib (mg/kg) 3,[5]; [16],23.1* %
same,ΔTV (%) lenvatinib (mg/kg) 10,[5]; [17],12.8* %
same,ΔTV (%) lenvatinib (mg/kg) 30,[5]; [18],-4.5* %
same,ΔTV (%) lenvatinib (mg/kg) 100,[5]; [19],-21.3* %
same,IC50,KP-1/VEGF transfectants,19600 nM
same,ΔTV (%) lenvatinib (mg/kg) 1,H460 (Lung) xenograft; [15],65.4%
same,ΔTV (%) lenvatinib (mg/kg) 3,H460 (Lung) xenograft; [16],34.9* %
same,ΔTV (%) lenvatinib (mg/kg) 10,H460 (Lung) xenograft; [17],16.3* %
same,ΔTV (%) lenvatinib (mg/kg) 30,H460 (Lung) xenograft; [18],16.4* %
same,ΔTV (%) lenvatinib (mg/kg) 100,H460 (Lung) xenograft; [19],-0.8* %
same,IC50,HUVECs [6],2.7 nM
same,ΔTV (%) lenvatinib (mg/kg) 1,[7]; [20],55.7* %
same,ΔTV (%) lenvatinib (mg/kg) 3,[7]; [21],56.9* %
same,ΔTV (%) lenvatinib (mg/kg) 10,[7]; [22],40.2* %
same,ΔTV (%) lenvatinib (mg/kg) 30,[7]; [23],21.2* %
same,ΔTV (%) lenvatinib (mg/kg) 100,[7]; [24],25.7* %
same,IC50,A431 (Epidermoid),30800 nM
same,ΔTV (%) lenvatinib (mg/kg) 1,[8]; [20],-7.5* %
same,ΔTV (%) lenvatinib (mg/kg) 3,[8]; [21],-42.2* %
same,ΔTV (%) lenvatinib (mg/kg) 10,[8]; [22],-65.4* %
same,ΔTV (%) lenvatinib (mg/kg) 30,[8]; [23],-72.0* %
same,ΔTV (%) lenvatinib (mg/kg) 100,[8]; [24],-78.6* %
same,IC50,SK-OV-3 (Ovary),26400 nM
same,IC50,MIApaca-II (Pancreas),33800 nM
same,Ki,VEGFR1 (FLT1),1.3 nM
same,"Antitumor activity, SEKI model",SEKI model,no effect
same,ΔTV (%) lenvatinib (mg/kg) 1,[9]; [15],41.7%
same,ΔTV (%) lenvatinib (mg/kg) 3,[9]; [16],29.4* %
same,ΔTV (%) lenvatinib (mg/kg) 10,[9]; [17],0.0* %
same,ΔTV (%) lenvatinib (mg/kg) 30,[9]; [18],-7.5* %
same,ΔTV (%) lenvatinib (mg/kg) 100,[9]; [19],-32.9* %
same,IC50,HUVECs [10],590 nM
same,ΔTV (%) lenvatinib (mg/kg) 1,[11]; [15],52.3* %
same,ΔTV (%) lenvatinib (mg/kg) 3,[11]; [16],39.6* %
same,ΔTV (%) lenvatinib (mg/kg) 10,[11]; [17],12.2* %
same,ΔTV (%) lenvatinib (mg/kg) 30,[11]; [18],8.3* %
same,ΔTV (%) lenvatinib (mg/kg) 100,[11]; [19],-15.6* %
same,Ki,VEGFR3 (FLT4),0.71 nM
same,Ki,KIT,11 nM
"CNC(=O)c1cc(Oc2ccc(NC(=O)Nc3ccc(Cl)c(C(F)(F)F)c3)cc2)ccn1 [sorafenib, reference compound]",IC50,[12],2000 nM
same,"Antiangiogenic activity, KP-1/VEGF DAS model",[13],selective antiangiogenic activity
same,"Inhibition of FGF-driven in vivo angiogenesis, KP-1/FGF DAS assay",[14],did not inhibit
